Source: patent US8912220B2 (priority 2009, dated 2014)
pEC50: −log10 of the molar value.

biological target: human 5-HT2C(VSV) (Homo sapiens, UniProt P28335, I156V/I160V/N158S); experiment: cell-based; details: not given
Sequence (P28335 33-458 I156V/N158S/I160V limits assumed): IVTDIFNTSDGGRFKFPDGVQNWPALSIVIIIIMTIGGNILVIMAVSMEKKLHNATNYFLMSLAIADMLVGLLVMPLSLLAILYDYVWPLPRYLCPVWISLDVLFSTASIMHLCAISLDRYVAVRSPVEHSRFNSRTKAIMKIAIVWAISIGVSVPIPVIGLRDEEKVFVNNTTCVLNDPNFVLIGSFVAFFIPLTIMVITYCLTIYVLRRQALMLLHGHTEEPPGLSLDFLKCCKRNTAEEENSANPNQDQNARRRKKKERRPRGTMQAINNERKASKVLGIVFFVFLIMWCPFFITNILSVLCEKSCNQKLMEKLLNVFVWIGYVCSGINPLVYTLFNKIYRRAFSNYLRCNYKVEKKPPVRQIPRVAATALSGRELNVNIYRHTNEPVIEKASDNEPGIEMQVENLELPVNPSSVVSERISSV

| SMILES | pEC50 |
| --- | --- |
| CNCCc1cn(C)c2ccc(F)c(OCCc3ccc(Cl)cc3)c12 [33-29, 2-(4-(4-chlorophenethoxy)-5-fluoro-1-methyl-1H-indol-3-yl)-N-methylethanamine] | 6.30 to 9.00 |
| CNCCc1cn(C)c2ccc(F)c(OCc3ccccc3-c3ccccc3)c12 [33-30, 2-(4-(biphenyl-2-ylmethoxy)-5-fluoro-1-methyl-1H-indol-3-yl)-N-methylethanamine] | 6.30 to 9.00 |
| CNCCc1cn(C)c2ccc(F)c(OCc3ccccc3C(F)(F)F)c12 [33-31, 2-(5-fluoro-1-methyl-4-(2-(trifluoromethyl)benzyloxy)-1H-indol-3-yl)-N-methylethanamine] | 6.30 to 9.00 |
| CNCCc1cn(C)c2ccc(F)c(OC(C)c3ccccc3)c12 (stereo not drawn) [33-32, 2-(5-fluoro-1-methyl-4-(1-phenylethoxy)-1H-indol-3-yl)-N-methylethanamine] | 6.30 to 9.00 |
| CNCCc1cn(C)c2ccc(F)c(OCc3cc(F)ccc3C)c12 [33-33, 2-(5-fluoro-4-(5-fluoro-2-methylbenzyloxy)-1-methyl-1H-indol-3-yl)-N-methylethanamine] | 6.30 to 9.00 |
| CNCCc1cn(C)c2ccc(F)c(OCc3ccccc3OC(F)(F)F)c12 [33-34, 2-(5-fluoro-1-methyl-4-(2-(trifluoromethoxy)benzyloxy)-1H-indol-3-yl)-N-methylethanamine] | 6.30 to 9.00 |
| CNCCc1cn(C)c2ccc(F)c(OCc3ccc(F)cc3)c12 [33-35, 2-(5-fluoro-4-(4-fluorobenzyloxy)-1-methyl-1H-indol-3-yl)-N-methylethanamine] | 6.30 to 9.00 |
| CNCCc1cn(C)c2ccc(F)c(OCc3cccc4ccccc34)c12 [33-36, 2-(5-fluoro-1-methyl-4-(naphthalen-1-ylmethoxy)-1H-indol-3-yl)-N-methylethanamine] | 6.30 to 9.00 |
| CNCCc1cn(C)c2ccc(F)c(OCC(O)c3ccccc3Cl)c12 (stereo not drawn) [33-37, 1-(2-chlorophenyl)-2-(5-fluoro-1-methyl-3-(2-(methylamino)ethyl)-1H-indol-4-yloxy)ethanol] | 6.30 to 9.00 |
| CNCCc1cn(C)c2ccc(F)c(OCc3ccc(S(C)(=O)=O)cc3)c12 [33-38, 2-(5-fluoro-1-methyl-4-(4-(methylsulfonyl)benzyloxy)-1H-indol-3-yl)-N-methylethanamine] | 6.30 to 9.00 |
| CCCn1cc(CCNC)c2c(OCc3cccc4ccccc34)c(F)ccc21 [33-39, 2-(5-fluoro-4-(naphthalen-1-ylmethoxy)-1-propyl-1H-indol-3-yl)-N-methylethanamine] | 6.30 to 9.00 |
| CNCCc1cn(C)c2cc(F)cc(OCc3ccccc3Cl)c12 [33-44, 2-(4-(2-chlorobenzyloxy)-6-fluoro-1-methyl-1H-indol-3-yl)-N-methylethanamine] | 6.30 to 9.00 |
| CNCCc1cn(C)c2cc(F)cc(OCc3ccc(Cl)cc3)c12 [33-45, 2-(4-(4-chlorobenzyloxy)-6-fluoro-1-methyl-1H-indol-3-yl)-N-methylethanamine] | 6.30 to 9.00 |
| CNCCc1cn(C)c2cc(F)cc(OCc3cccc(Cl)c3)c12 [33-46, 2-(4-(3-chlorobenzyloxy)-6-fluoro-1-methyl-1H-indol-3-yl)-N-methylethanamine] | 6.30 to 9.00 |
| Cn1cc(CCNCc2ccccc2)c2c(O)c(F)ccc21 [33-47, 3-(2-(benzylamino)ethyl)-5-fluoro-1-methyl-1H-indol-4-ol] | 6.30 to 9.00 |
| CNCCc1cn(C)c2ccc(F)c(OCc3ccc(Cl)cc3Cl)c12 [33-48, 2-(4-(2,4-dichlorobenzyloxy)-5-fluoro-1-methyl-1H-indol-3-yl)-N-methylethanamine] | > 5.00 |
| CNCCc1cn(C)c2ccc(F)c(OCc3ccc(Cl)c(OC(F)(F)F)c3)c12 [33-49, 2-(4-(4-chloro-3-(trifluoromethoxy)benzyloxy)-5-fluoro-1-methyl-1H-indol-3-yl)-N-methylethanamine] | > 5.00 |
| COc1ccc(CNCCc2cn(C)c3ccc(F)c(OC)c23)cc1OC [34-8, N-(3,4-dimethoxybenzyl)-2-(5-fluoro-4-methoxy-1-methyl-1H-indol-3-yl)ethanamine] | 6.30 to 9.00 |
| COc1c(F)ccc2c1c(CCNC(CO)c1ccccc1)cn2C (stereo not drawn) [34-9, 2-(2-(5-fluoro-4-methoxy-1-methyl-1H-indol-3-yl)ethylamino)-2-phenylethanol] | 6.30 to 9.00 |
| COc1c(F)ccc2c1c(CCNC(C)c1ccccc1)cn2C (stereo not drawn) [34-10, 2-(5-fluoro-4-methoxy-1-methyl-1H-indol-3-yl)-N-(1-phenylethyl)ethanamine] | 6.30 to 9.00 |
| CN(CCc1cn(C)c2ccc(F)c(OCc3ccccc3C#N)c12)Cc1ccccc1C#N [35-2, 2-((3-(2-((2-cyanobenzyl)(methyl)amino)ethyl)-5-fluoro-1-methyl-1H-indol-4-yloxy)methyl)benzonitrile] | 5.00 to 6.30 |
| CCn1cc(CCN(C)C)c2c(OC)cc(-c3ccccc3)cc21 [36-6, 2-(1-ethyl-4-methoxy-6-phenyl-1H-indol-3-yl)-N,N-dimethylethanamine] | 5.00 to 6.30 |
| CCn1cc(C2=CCNCC2)c2c(OCc3ccccc3)cc(F)cc21 [37-2, 4-(benzyloxy)-1-ethyl-6-fluoro-3-(1,2,3,6-tetrahydropyridin-4-yl)-1H-indole] | 5.00 to 6.30 |
| CCn1cc(C2CCCNC2)c2c(O)cc(F)cc21 (stereo not drawn) [38-4, 1-ethyl-6-fluoro-3-(piperidin-3-yl)-1H-indol-4-ol] | 6.30 to 9.00 |
| CCn1cc(C2CCCN(C)C2)c2c(O)cc(F)cc21 (stereo not drawn) [38-6, 1-ethyl-6-fluoro-3-(1-methylpiperidin-3-yl)-1H-indol-4-ol] | 5.00 to 6.30 |
| CCn1cc(CCNCc2ccccc2)c2c(OC)cc(F)cc21 [39-4, N-benzyl-2-(1-ethyl-6-fluoro-4-methoxy-1H-indol-3-yl)ethanamine] | 6.30 to 9.00 |
| CCn1cc(CCN(C)CCc2cn(CC)c3cc(F)cc(OC)c23)c2c(OC)cc(F)cc21 [39-5, 2-(1-ethyl-6-fluoro-4-methoxy-1H-indol-3-yl)-N-(2-(1-ethyl-6-fluoro-4-methoxy-1H-indol-3-yl)ethyl)-N-methylethanamine] | 6.30 to 9.00 |
| CCn1cc(CCNCC(C)c2ccccc2)c2c(O)cc(F)cc21 (stereo not drawn) [39-6, 1-ethyl-6-fluoro-3-(2-(2-phenylpropylamino)ethyl)-1H-indol-4-ol] | 6.30 to 9.00 |
| CCCn1cc(CCN)c2c3c(ccc21)OCCO3 [40-6, 2-(7-propyl-3,7-dihydro-2H-[1,4]dioxino[2,3-e]indol-9-yl)ethanamine] | > 5.00 |

biological target: T1, human 5-HT6 (Homo sapiens, UniProt P50406); experiment: cAMP agonist and antagonist mode at 5-HT6 (HTRF, 1321N1 cells); format: cell-based; details: reference agonist, used in antagonist mode
T1 construct: expressed in transfected cells
Procedure: For assessment of 5-HT6 activity, 1321N1 cells stably expressing human 5-HT6 were grown to ˜90% confluence in a humidified atmosphere at 37° C. with 5% CO2 in F12 nutrient mixture (Ham) containing 10% dialyzed FBS, 400 µg/ml G418, 100 U/ml penicillin, and 100 µg/ml streptomycin. Medium was removed by aspiration, cells were washed 1× with PBS, and dissociated using PBS-EDTA for […] at room temperature. Cells were then diluted with PBS and pelleted by centrifugation for […] at 1000 rpm. Cells were suspended in assay buffer containing 3000 µM Ro-20-1724 (Sigma, St. Louis, Mo.), a phosphodiesterase inhibitor. Cells were seeded using a microplate dispenser at a density of 3,750 cells/well in a volume of 5 µl onto 384 well white wall/opaque bottom, small volume plates (Greiner Bio One, Monroe, N.C.).
Compound plates for cAMP assays were prepared at 8 mM in 100% DMSO and diluted in assay buffer to the appropriate test concentrations. The final in-well concentration of DMSO was 0.5%. Compounds were tested in duplicate wells using a range of twelve concentrations. […]
Homogeneous time-resolved fluorescence (HTRF) (cAMP dynamic 2 kit; Cisbio, Bedford, Mass.) was used to measure the formation of 3′,5′-cyclic adenosine monophosphate (cAMP) per the manufacturer's instructions. HTRF signal was measured at 620 and 665 nm using an EnVision Multilabel Plate Reader (PerkinElmer). […]

T1 sequence (P50406 whole entry): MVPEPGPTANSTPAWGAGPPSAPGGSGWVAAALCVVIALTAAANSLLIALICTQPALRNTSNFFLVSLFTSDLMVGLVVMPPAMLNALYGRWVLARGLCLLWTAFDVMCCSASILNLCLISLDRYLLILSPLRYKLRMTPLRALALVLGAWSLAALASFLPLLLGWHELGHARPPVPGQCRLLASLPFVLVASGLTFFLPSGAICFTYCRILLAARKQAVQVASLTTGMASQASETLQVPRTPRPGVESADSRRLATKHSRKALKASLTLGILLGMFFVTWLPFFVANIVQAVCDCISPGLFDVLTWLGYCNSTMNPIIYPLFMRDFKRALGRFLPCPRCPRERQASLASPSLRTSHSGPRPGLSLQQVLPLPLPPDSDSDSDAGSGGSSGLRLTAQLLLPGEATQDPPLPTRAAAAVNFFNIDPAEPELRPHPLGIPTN

| SMILES | EC80 of 5-HT [nM] |
| --- | --- |
| NCCc1c[nH]c2ccc(O)cc12 [5-HT, 5-hydroxytryptamine] | 15 |
